For orientation: Ki means a dissociation constant, usually derived from enzyme kinetics or from competition with a known ligand.

Test [1] deals with human GABAA α2β2γ1 receptor (Homo sapiens (Human), UniProt P47869+Q8N1C3). In words: Radioligand binding assay, competition for [3H]RO7239181, γ1-containing GABAA subtypes. As for the experimental part:
Membrane Preparation and Binding Assay for γ1-containing GABAA Subtypes
The affinity of compounds at GABAA γ1 subunit-containing receptors was measured by competition for [^3H]RO7239181 (67.3 Ci/mmol: Roche) binding to membranes from HEK293F cells (ThermoFisher R79007) expressing human (transiently transfected) receptors of composition α5β2γ1, α2β2γ1, α1β2γ1.
Harvested pellets from HEK293F cells expressing the different GABAA receptor subtypes were resuspended in Mannitol Buffer pH 7.2-7.4 (Mannitol 0.29 M, Tricthylamine 10 mM. Acetic acid 10 mM. EDTA 1 mM plus protease inhibitors (20 tablets Complete. Roche Diagnostics Cat. No. 05 056 489 001 per liter)), washed two times and then resuspended at 1:10 to 1:15 dilution in the same buffer. Cell disruption was performed by stirring the suspension in a Parr vessel #4637 at 435 psi for 15 minutes, and then the suspensions were centrifuged at 1000×g for 15 minutes at 4° C. (Beckman Avanti J-HC: rotor JS-4.2). The supernatant (S1) was transferred in a 21 Schott flask and the pellet (P1) was resuspended with Mannitol Buffer up to 175 ml. The resuspended pellet was transferred into a 250 ml Corning centrifugal beaker and centrifuged at 1500 ×g for 10 minutes at 4° C. (Beckman Avanti J-HC: rotor JS-4.2). The supernatant (S1) was then transferred in the 21 Schott flask and the pellet was discarded. The supernatants (S1) were centrifuged in 500ml Beckman polypropylene centrifugal beaker at 15 000×g for 30 minutes at 4° C. (Beckman Avanti J-20 XP; rotor JLA-10.500). The pellet (P2) was resuspended with Mannitol Buffer 1:1 and frozen at −80° C. The supernatant (S2) was centrifuged in 100 ml Beckman polypropylene centrifugal tubes at 48000×g for 50 minutes at 4 °C (Beckman Avanti J-20 XP: rotor JA-18). The supernatant (S3) was discarded and the pellet (P3) was resuspended with 1:1 Mannitol Buffer. The P2 and P3 protein concentration was determined with the BIORAD Standard assay method with bovine serum albumin as standard and measured on the NANO-Drop 1000. The membrane suspension was aliquots (500μl per tube) and stored at −80° C. until required.
Membrane homogenates were resuspended and polytronised (Polytron PT1200E Kinematica AG) in Potassium Phosphate 10 mM, KCl 100 mM binding buffer at pH 7.4 to a final assay concentration determined with a previous experiment.
Radioligand binding assays were carried out in a volume of 200 μL (96-well plates) which contained 100 μL of cell membranes. […] Assays were incubated to equilibrium for 1 hour at 4° C. and then, membranes were filtered onto unifilter (96-well white microplate with bonded GF/C filters preincubated 20-50 minutes in 0.3% Polyethylenimine) with a Filtermate 196 harvester (Packard BioScience) and washed 4 times with cold Potassium Phosphate 10 mM pH 7.4. KCl 100 mM binding buffer. After anhydrousing, filter-retained radioactivity was detected by liquid scintillation counting. Ki values were calculated using Excel-Fit (Microsoft) and are the means of two determinations.

Test [2] addresses human GABAA α1β3γ2 receptor (Homo sapiens (Human), UniProt P14867+P18507). Put plainly: Radioligand binding assay, competition for [3H]Flumazenil, γ2-containing GABAA subtypes. Conditions: for γ2/γ1 Selectivity Ratio: Ki α1β3γ2 (nM)/Ki α2β2γ1 (nM); for LogSel: Log[Ki α1β3γ2 (nM)/Ki α2β2γ1 (nM)]. How it is done:
Membrane Preparation and Binding Assay for γ2-containing GABAA Subtypes
The affinity of compounds at GABAA γ2 subunit-containing receptors was measured by competition for [^3H]Flumazenil (81.1 Ci/mmol; Roche) binding to HEK293F cells expressing human (transiently transfected) receptors of composition α1β3γ2.
Harvested pellets from HEK293F cells expressing the different GABAA γ2 receptor subtypes were resuspended in Mannitol Buffer pH 7,2-7,4 and processed as described above for the cells expressing the GABAA γ1 subunit-containing receptors.
Assays were incubated to equilibrium for 1 hour at 4° C, and harvested onto GF/C uni-filters (Packard) by filtration using a Packard harvester and washing with ice-cold wash buffer (50 mM Tris; pH 7.5). After anhydrousing, filter-retained radioactivity was detected by liquid scintillation counting. Ki values were calculated using Excel-Fit (Microsoft) and are the means of two determinations.

Test [3] concerns the target h-GABA-A α2β2γ1 receptor expressed in Xenopus laevis oocytes (Homo sapiens (Human), UniProt P47869+Q8N1C3). In words: Two-electrode voltage clamp electrophysiology in Xenopus oocytes expressing GABAA receptors. Type of test: cell-based. Conditions: for Efficacy (GABA)%: % modulation of GABA EC20 = 100*(Fold increase-1), compound at 30-fold Ki α2β2γ1; for Fold increase h-GABA-A α2β2γ1 oocyte @ 30-fold Ki: GABA EC20, test compound at approx. 30-fold its Ki α2β2γ1, at least 3 oocytes. The source says: Functional Expression of GABAA Receptors:
Xenopus Oocytes Preparation
Xenopus laevis oocytes at maturation stages V-VI were used for the expression of cloned mRNA encoding GABAA receptor subunits. Oocytes ready for RNA micro-injection were bought from Ecocyte, Castrop-Rauxel, Germany and stored in modified Barth's medium (composition in mM: NaCl 88, KCl 1, NaHCO3 2.4, HEPES 10, MgSO4 0.82, CaNO3 0.33, CaCl2 0.33, pH=7.5) at 20 C. until the experiment.
Xenopus Oocytes Microinjection
Oocytes were plated in 96-well plates for microinjection using the Roboinject automated instrument (MultiChannelSystems, Reutlingen, Germany). Approximately 50 nL of an aqueous solution containing the RNA transcripts for the subunits of the desired GABAA receptor subtype was injected into each oocyte. […] Oocytes were kept in modified Barth's medium (composition in mM: NaCl 88, KCl 1, NaHCO3 […], HEPES 10, MgSO4 0.82, CaNO3 0.33, CaCl2 0.33, pH=7.5) at 20° C. until the experiment.
Electrophysiological experiments were performed using the Roboocyte instrument (MultiChannelSystems, Reutlingen, Germany) on days 3 to 5 after the micro-injection of mRNA. During the experiment the oocytes were constantly superfused by a solution containing (in mM) NaCl 90, KCl 1, HEPES 5, MgCl: 1, CaCl, 1 (pH 7.4). Oocytes were impaled by two glass microelectrodes (resistance: 0.5-0.8 MS2) which were filled with a solution containing KCl 1M +K-acetate 1.5 M and voltage-clamped to −80 mV. The recordings were performed at room temperature using the Roboocyte two-electrode voltage clamp system (Multichannelsystem). After an initial equilibration period of 1.5 min GABA was added for 1.5 min at a concentration evoking approximately 20% of a maximal current response (EC20). After another rest interval of 2.5 min GABA was again added evoking a response of similar amplitude and shape. […] Current traces were recorded at a digitization rate of 10 Hz during and shortly before and after the GABA application.
Each compound and concentration was tested on at least 3 oocytes. Different oocytes were used for different compound concentrations.
For the analysis, the digitized current traces of the first and second GABA response were superimposed and, if necessary, rescaled to equal maximal amplitudes. The ratio between the two responses during the time interval of test compound application was calculated point by point. The extremum of the resulting “ratio trace” was taken as the efficacy (“Fold increase”) of the compound expressed as “% modulation of GABA EC” (100* (Fold increase-1)).
For orientation: In two-electrode clamp one electrode senses voltage and the other passes current.

[4] abbreviates: read-out: Ki h-GABAA α2β2γ1, membranes from HEK293F cells, [3H]RO7239181 20-30 nM, mean of two determinations.
The mark [5] stands for this setting: HEK293F cell membranes, [3H]Flumazenil 1 nM, mean of two determinations, read-out: Ki h-GABAA α1β3γ2.

Each structure is given as a SMILES string. Like-named read-outs stand apart in the source and are kept apart here.

On to `C[C@@H]1N=C(c2c(F)cccc2F)c2c(sc3c2C[C@@H](C(F)F)C3)-n2nc(C(=O)NCCO)nc21` [Example 18, (7S,13R)-13-(difluoromethyl)-9-(2,6-difluorophenyl)-N-(2-hydroxyethyl)-7-methyl-16-thia-2,3,5,8-tetrazatetracyclo [8.6.0.02,6.011,15]hexadeca-1(10),3,5,8,11(15)-pentaene-4-carboxamide], for which the affinity in test [1], expressed as Ki, was 5.7 nM. In addition, in test [1] (setting [4]), the inhibition constant Ki was found to be 5.7 nM. Further, the Ki in test [2] (setting [5]) is 614 nM. In test [2], the “γ2/γ1 Selectivity Ratio” value is 107.2 and the LogSel was 2.03. Further, in test [3], the “Efficacy (GABA)%” value is 65% and the “Fold increase h-GABA-A α2β2γ1 oocyte @ 30-fold Ki” value is recorded as 1.65.

`Fc1cccc(Cl)c1C1=NCc2nnc(C3CC3)n2-c2sc3c(c21)C[C@@H](C(F)F)C3` [Example 6, (13R)-9-(2-chloro-6-fluoro-phenyl)-3-cyclopropyl-13-(difluoromethyl)-16-thia-2,4,5,8-tetrazatetracyclo [8.6.0.02,6.011,15]hexadeca-1(10),3,5,8,11(15)-pentaene]: the affinity in test [1] corresponds to a Ki of 6.6 nM. Further, the Ki in test [1] (setting [4]) came out at 6.6 nM. In test [2], the affinity, expressed as Ki, was 647 nM; the “γ2/γ1 Selectivity Ratio” value was determined as 97.7; the LogSel turned out to be 1.99. In test [3], the “Efficacy (GABA)%” value came out at 85% and the “Fold increase h-GABA-A α2β2γ1 oocyte @ 30-fold Ki” value is 1.85.

`Fc1cccc(F)c1C1=NCc2nnc(-c3cccnn3)n2-c2sc3c(c21)C[C@@H](C(F)F)C3` [Example 10, (13R)-13-(difluoromethyl)-9-(2,6-difluorophenyl)-3-pyridazin-3-yl-16-thia-2,4,5,8-tetrazatetracyclo [8.6.0.02,6.011,15]hexadeca-1(10),3,5,8,11(15)-pentaene] had a Ki in test [1] of 3 nM. Further, the Ki in test [1] (setting [4]) came to 3 nM. Also, in test [2], affinity was put at a Ki of 3220 nM, the “γ2/γ1 Selectivity Ratio” value was 1090.8 and the LogSel was 3.04. In test [3], the “Efficacy (GABA)%” value came out at 47% and the “Fold increase h-GABA-A α2β2γ1 oocyte @ 30-fold Ki” value was 1.47.

`Cc1cnc2n1-c1sc3c(c1C(c1c(F)cccc1F)=N[C@H]2C)C[C@@H](C(F)F)C3` [Example 20, (7S,13R)-13-(difluoromethyl)-9-(2,6-difluorophenyl)-3,7-dimethyl-16-thia-2,5,8-triazatetracyclo [8.6.0.02,6.011,15]hexadeca-1(10),3,5,8,11(15)-pentaene] came in with a Ki in test [1] of 2.24 nM. The inhibition constant Ki in test [1] (setting [4]) was 2.24 nM. In test [2], the Ki is 191 nM, the “γ2/γ1 Selectivity Ratio” value stood at 53.4 and the LogSel is listed as 1.73. For the same compound, in test [3], the “Efficacy (GABA)%” value was 70% and the “Fold increase h-GABA-A α2β2γ1 oocyte @ 30-fold Ki” value is 1.70.

In the case of `Cc1nnc2n1-c1sc3c(c1C(c1c(F)cccc1Cl)=NC2)C[C@@H](C#N)C3` [Example 1, (13R)-9-(2-chloro-6-fluoro-phenyl)-3-methyl-16-thia-2,4,5,8-tetrazatetracyclo [8.6.0.02,6.011,15]hexadeca-1(10),3,5,8,11(15)-pentaene-13-carbonitrile], the Ki in test [1] was 25.4 nM. Also, the Ki in test [1] (setting [4]) worked out at 25.4 nM. For the same compound, the Ki in test [2] (setting [5]) worked out at 1250 nM. Further, in test [2], the “γ2/γ1 Selectivity Ratio” value is 49.0 and the LogSel stood at 1.69. Further, in test [3], the “Efficacy (GABA)%” value is recorded as 54% and the “Fold increase h-GABA-A α2β2γ1 oocyte @ 30-fold Ki” value was found to be 1.54.

`Cc1nnc2n1-c1sc3c(c1C(c1c(F)cccc1F)=NC2)C[C@@H](C#N)C3` [Example 2, (13R)-9-(2,6-difluorophenyl)-3-methyl-16-thia-2,4,5,8-tetrazatetracyclo [8.6.0.02,6.011,15]hexadeca-1(10),3,5,8,11(15)-pentaene-13-carbonitrile]: the inhibition constant Ki in test [1] turned out to be 42.7 nM. Moreover, the Ki in test [1] (setting [4]) amounted to 42.7 nM. Further, the Ki in test [2] (setting [5]) worked out at 2160 nM. In test [2], the “γ2/γ1 Selectivity Ratio” value was found to be 50.7 and the LogSel is 1.71. Moreover, in test [3], the “Efficacy (GABA)%” value is on record as 35% and the “Fold increase h-GABA-A α2β2γ1 oocyte @ 30-fold Ki” value came out at 1.35.

`C[C@@H]1N=C(c2c(F)cccc2F)c2c(sc3c2C[C@@H](C(F)F)C3)-n2c(CO)cnc21` [Example 21, [(7S,13R)-13-(difluoromethyl)-9-(2,6-difluorophenyl)-7-methyl-16-thia-2,5,8-triazatetracyclo [8.6.0.02,6.011,15]hexadeca-1(10),3,5,8,11(15)-pentaen-3-yl]methanol]: in test [1], the Ki came to 2.97 nM. In test [1] (setting [4]), the Ki worked out at 2.97 nM. Besides, in test [2], affinity was put at a Ki of 606 nM, the “γ2/γ1 Selectivity Ratio” value worked out at 127.6 and the LogSel was found to be 2.11. In test [3], the “Efficacy (GABA)%” value is given as 68% and the “Fold increase h-GABA-A α2β2γ1 oocyte @ 30-fold Ki” value is 1.68.

The values are drawn from patent publication US20240190889A1, “NEW CYCLOPENTA-THIENO-DIAZEPINE DERIVATIVES AS GABA A GAMMA1 POSITIVE ALLOSTERIC MODULATORS” (Hoffmann-La Roche Inc., priority 2021, published 2024).
